The text below walks through data of PubChem BioAssay (NCI).

Assay in all cases: growth of human tumour cells (NCI), 48 h
In assay [1] the test system is A498 renal.
The subject of assay [2] is CCRF-CEM leukemia.
Assay [3] has as its system DU-145 prostate.
Assay [4] deals with HCC-2998 colon.
The test system of assay [5] is HCT-116 colon.
Assay [6] relates to HL-60(TB) leukemia.
Assay [7] relates to HOP-62 NSCLC.
The test system of assay [8] is M14 melanoma.
Assay [9] concerns MALME-3M melanoma.
Assay [10] relates to MDA-MB-231 breast.
Assay [11] has as its system MDA-MB-435.
The test system of assay [12] is MDA-N.
Assay [13] has as its system NCI-H460 lung.
Assay [14] relates to OVCAR-4 ovarian.
In assay [15] the test system is SK-MEL-2 melanoma.
Assay [16] has as its system SK-OV-3 ovarian.
Assay [17] deals with SN12C renal.
Assay [18] relates to SNB-75 CNS.
In assay [19] the test system is SW-620 colon.
The subject of assay [20] is TK-10 renal.

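Interpolation was linear, between the two tested concentrations surrounding the appropriate level; five concentrations were tested over 48 hours in 96-well plates. The concentration for full growth arrest is given as TGI.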 Bounds are passed on as bounds.

`CN1CCC(OC(=O)Oc2ccccc2)(c2ccccc2)CC1`: the TGI in assay [1] is 56.4 µM; in assay [2], 55.1 µM; in assay [3], more than 100 µM; in assay [4], 38.3 µM; in [5], 30.5 µM; in [6], 36.6 µM. Moreover, the TGI worked out at 40.6 µM in assay [7]; 28.2 µM in [8]; 32.5 µM in assay [9]; 29.1 µM in [10]; 33.7 µM in assay [11]; 34.9 µM in [12]. The TGI in [13] was 39.3 µM; in assay [14], 48.4 µM; in [15], 33.2 µM; in assay [16] it was 52.9 µM; in assay [17], 43.8 µM; in assay [18], 63.3 µM. Besides, the TGI in assay [19] came to 59.6 µM; in assay [20], 37.7 µM.
As for `C=C1CC[C@@]2(OC1)OC1C[C@H]3[C@@H]4CC=C5C[C@@H](O)CC(OC6OCC(OC(=O)[C@@H](O)[C@@H](C)CC)C(OC(C)=O)C6OC6OC(C)C(O)C(O)C6O)[C@]5(C)[C@H]4CC[C@]3(C)C1[C@@H]2C` (stereo not given in full), the TGI is 3.44 µM in assay [1]; 3.43 µM in [2]; 4.35 µM in assay [3]; 2.96 µM in assay [4]; 3.06 µM in assay [5]; 4.87 µM in [6]. The TGI in assay [8] was 4.45 µM; in assay [9], more than 10 µM; in assay [10] it was 3.23 µM; in assay [11] it was 3.38 µM; in assay [12], 3.51 µM; in assay [13], 3.32 µM. Further, the TGI in [14] is more than 10 µM; in [15], 3.11 µM; in assay [16] it was 3.57 µM; in [17] it was 4 µM; in [18] it was 4.84 µM; in [19], 4.51 µM. The TGI in [20] is 3.87 µM.
Turning to `CC(=O)NNc1nc(C)c(C(/C=C/c2cccc([N+](=O)[O-])c2)=N/NC(=S)NN)s1`, the TGI in [1], in [2], in assay [3], in [4], in assay [5] and in [6] was more than 100 µM in each case. Besides, the TGI in assay [7], in assay [8], in assay [9], in assay [10], in assay [11] and in [12] was more than 100 µM throughout. In addition, the TGI in [13], in [14], in assay [15], in [16], in assay [17] and in assay [18] was more than 100 µM throughout. Moreover, the TGI in assay [19] and in assay [20] was more than 100 µM each time.
As to `CCOC(=O)Cn1sc2ncc([N+](=O)[O-])cc2c1=O`, the TGI was more than 100 µM in assay [1]; 5.41 µM in [2]; more than 100 µM in assay [3]; 32.2 µM in assay [4]; 31.1 µM in [5]; more than 100 µM in [6]. Moreover, the TGI in assay [7] turned out to be 30 µM; in [9], 33.9 µM; in assay [10] it was 29.3 µM; in [11] it was 30 µM; in assay [12], 24.9 µM; in [13], 34.4 µM. Besides, the TGI is 38 µM in assay [14]; 70.9 µM in assay [15]; 34.6 µM in assay [16]; 31.6 µM in assay [17]; 89.1 µM in assay [18]; 30.6 µM in assay [19]. In [20], the TGI was determined as 32.8 µM.
On to `Nc1nc(Cl)cc(NCC2(CO)CC(OCc3ccccc3)C2)n1` (stereo not given), for which the TGI in assay [1] was 86.5 µM; in [2], more than 100 µM; in [3], more than 100 µM; in [4], more than 100 µM; in assay [5] it was more than 100 µM; in [6] it was more than 100 µM. Further, the TGI in [7], in assay [9], in assay [10], in assay [11], in assay [12] and in assay [13] was more than 100 µM each time. The TGI is more than 100 µM in assay [14]; more than 100 µM in [15]; more than 100 µM in [16]; more than 100 µM in [17]; 85.2 µM in assay [18]; more than 100 µM in [19]. Besides, in [20], the TGI was more than 100 µM.
Regarding `CC(=O)OCC1OC(N2C(c3ccccc3)=CC(c3ccccc3)C(C#N)=C2S)C(OC(C)=O)C(OC(C)=O)C1OC(C)=O` (stereo not given), the TGI is 44.2 µM in [1]; more than 100 µM in [2]; more than 100 µM in [3]; more than 100 µM in assay [4]; more than 65.6 µM in assay [5]; more than 100 µM in [6]. Further, the TGI is 17.9 µM in assay [7]; 74 µM in [8]; 28.3 µM in assay [9]; more than 40.8 µM in assay [10]; more than 40.2 µM in assay [11]; 15.1 µM in assay [12]. For the same molecule, the TGI in assay [13] is more than 49.5 µM; in assay [14], more than 31.6 µM; in assay [15], 16.8 µM; in assay [17] it was 15.7 µM; in [18], 54.2 µM; in [19], more than 100 µM. This molecule came in with a TGI in assay [20] of 50.1 µM.
Turning to `CCCN=C(NC(=O)c1ccc(Cl)cc1)SC`, the TGI is 99.8 µM in assay [1]; more than 100 µM in assay [2]; more than 100 µM in [3]; more than 100 µM in [4]; more than 100 µM in assay [5]; more than 100 µM in [6]. Moreover, the TGI in assay [7], in assay [8], in [9], in assay [10], in assay [11] and in [12] was more than 100 µM throughout. The TGI in assay [13] is more than 100 µM; in assay [14], more than 100 µM; in [15] it was more than 100 µM; in [16] it was more than 100 µM; in assay [17], more than 100 µM; in assay [18] it was 97.2 µM. In assay [19], this molecule came in with a TGI of more than 100 µM.
